Experimental data taken from patent US6881584B1, “Infrared thermography” (SmithKline Beecham Corporation, priority 1998, dated 2005).

System: liver
Experiment: Liver thermogenesis in AKR mice with IR transparent adhesive
Type: in vivo
Conditions: AKR mice on high-fat diet, 75 mg/kg i.g., 5 hours
Experimental: FIG. 31. Liver thermogenesis in AKR mice 5 hours after treatment with the nucleoside reverse transcriptase inhibitor (NRTI) D4T detected by IR thermography. Male AKR mice were housed 5 per cage and maintained on high fat diet (58% kCals as fat) and water ad libitum. Mice were dosed at 0, 1, 10, 75, and 100 mg/kg D4T in water vehicle (0.5 mL i.g.; n=10 per dose) and anesthetized using isoflurane as described above 5 hours after treatment. The abdomens of the anesthetized mice were surgically opened to expose the liver and Bioclusive adhesive was placed over the entire exposed area. IR images of the liver region were acquired and analyzed as detailed in FIG. 28. […] Quantification of the IR signal depicted in the image is shown in the bottom left panel. Analysis of the dose response to D4T is shown in the panel to the right. Data shown are means±SEM for n=10 animals per group.
AKR mice fed a high-fat diet were treated with 75 mg/kg D4T, and their abdomens were surgically opened and covered with Bioclusive adhesive 5 hour later. […] This decrease is quantitated in the lower left panel of FIG. 31. Moreover, the dose-dependent effect of D4T on decreased liver temperature determined using IR thermography (FIG. 31, right panel) correlated well with the effect of D4T treatment on serum non-esterified fatty acid levels (r=0.91, data not shown).

`Cc1cn([C@H]2C=C[C@@H](CO)O2)c(=O)[nH]c1=O` [D4T] was tested, and the liver temperature was “decrease in temperature”.
